Values of other authors, collected in US10744110B2, “Methods of treating lung cancer” (Abraxis BioScience, LLC, priority 2013, dated 2020).

Test system: NSCLC
Conditions: single agent

CCC1=C[C@@H]2CN(C1)Cc1c([nH]c3ccccc13)[C@@](C(=O)OC)(c1cc3c(cc1OC)N(C)[C@H]1[C@@](O)(C(=O)OC)[C@H](OC(C)=O)[C@]4(CC)C=CCN5CC[C@]31[C@@H]54)C2 [vinorelbine]
response rate (RR): 29.4%
